Measurements taken from ChEMBL document CHEMBL1201862, “PubChem BioAssay data set” (2004).
Values belong to the compound of their own block, whether it stands above or below them. Calls of active or inactive are those of the source.

Tests used:
[1] = biological target: Peroxisome proliferator-activated receptor gamma/Nuclear receptor coactivator 2 (Homo sapiens, UniProt P37231); type: functional;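 note: agonist potency for raising coactivator recruitment to the receptor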
[2] = biological target: Peroxisome proliferator-activated receptor gamma/Nuclear receptor coactivator 3 (Homo sapiens, UniProt P37231); type: functional;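 note: agonist potency for raising coactivator recruitment to the receptor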
[3] = biological target: Peroxisome proliferator-activated receptor gamma/Nuclear receptor coactivator 1 (Homo sapiens, UniProt P37231); type: functional;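 note: agonist potency as compounds enhance coactivator SRC-1 recruitment to PPARgamma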
[4] = biological target: T1, Voltage-gated N-type calcium channel alpha-1B subunit/Amyloid beta A4 precursor protein-binding family A member 1 (Homo sapiens, UniProt Q00975+Q02410); type: protein assay
T1 sequence (Q00975 whole entry): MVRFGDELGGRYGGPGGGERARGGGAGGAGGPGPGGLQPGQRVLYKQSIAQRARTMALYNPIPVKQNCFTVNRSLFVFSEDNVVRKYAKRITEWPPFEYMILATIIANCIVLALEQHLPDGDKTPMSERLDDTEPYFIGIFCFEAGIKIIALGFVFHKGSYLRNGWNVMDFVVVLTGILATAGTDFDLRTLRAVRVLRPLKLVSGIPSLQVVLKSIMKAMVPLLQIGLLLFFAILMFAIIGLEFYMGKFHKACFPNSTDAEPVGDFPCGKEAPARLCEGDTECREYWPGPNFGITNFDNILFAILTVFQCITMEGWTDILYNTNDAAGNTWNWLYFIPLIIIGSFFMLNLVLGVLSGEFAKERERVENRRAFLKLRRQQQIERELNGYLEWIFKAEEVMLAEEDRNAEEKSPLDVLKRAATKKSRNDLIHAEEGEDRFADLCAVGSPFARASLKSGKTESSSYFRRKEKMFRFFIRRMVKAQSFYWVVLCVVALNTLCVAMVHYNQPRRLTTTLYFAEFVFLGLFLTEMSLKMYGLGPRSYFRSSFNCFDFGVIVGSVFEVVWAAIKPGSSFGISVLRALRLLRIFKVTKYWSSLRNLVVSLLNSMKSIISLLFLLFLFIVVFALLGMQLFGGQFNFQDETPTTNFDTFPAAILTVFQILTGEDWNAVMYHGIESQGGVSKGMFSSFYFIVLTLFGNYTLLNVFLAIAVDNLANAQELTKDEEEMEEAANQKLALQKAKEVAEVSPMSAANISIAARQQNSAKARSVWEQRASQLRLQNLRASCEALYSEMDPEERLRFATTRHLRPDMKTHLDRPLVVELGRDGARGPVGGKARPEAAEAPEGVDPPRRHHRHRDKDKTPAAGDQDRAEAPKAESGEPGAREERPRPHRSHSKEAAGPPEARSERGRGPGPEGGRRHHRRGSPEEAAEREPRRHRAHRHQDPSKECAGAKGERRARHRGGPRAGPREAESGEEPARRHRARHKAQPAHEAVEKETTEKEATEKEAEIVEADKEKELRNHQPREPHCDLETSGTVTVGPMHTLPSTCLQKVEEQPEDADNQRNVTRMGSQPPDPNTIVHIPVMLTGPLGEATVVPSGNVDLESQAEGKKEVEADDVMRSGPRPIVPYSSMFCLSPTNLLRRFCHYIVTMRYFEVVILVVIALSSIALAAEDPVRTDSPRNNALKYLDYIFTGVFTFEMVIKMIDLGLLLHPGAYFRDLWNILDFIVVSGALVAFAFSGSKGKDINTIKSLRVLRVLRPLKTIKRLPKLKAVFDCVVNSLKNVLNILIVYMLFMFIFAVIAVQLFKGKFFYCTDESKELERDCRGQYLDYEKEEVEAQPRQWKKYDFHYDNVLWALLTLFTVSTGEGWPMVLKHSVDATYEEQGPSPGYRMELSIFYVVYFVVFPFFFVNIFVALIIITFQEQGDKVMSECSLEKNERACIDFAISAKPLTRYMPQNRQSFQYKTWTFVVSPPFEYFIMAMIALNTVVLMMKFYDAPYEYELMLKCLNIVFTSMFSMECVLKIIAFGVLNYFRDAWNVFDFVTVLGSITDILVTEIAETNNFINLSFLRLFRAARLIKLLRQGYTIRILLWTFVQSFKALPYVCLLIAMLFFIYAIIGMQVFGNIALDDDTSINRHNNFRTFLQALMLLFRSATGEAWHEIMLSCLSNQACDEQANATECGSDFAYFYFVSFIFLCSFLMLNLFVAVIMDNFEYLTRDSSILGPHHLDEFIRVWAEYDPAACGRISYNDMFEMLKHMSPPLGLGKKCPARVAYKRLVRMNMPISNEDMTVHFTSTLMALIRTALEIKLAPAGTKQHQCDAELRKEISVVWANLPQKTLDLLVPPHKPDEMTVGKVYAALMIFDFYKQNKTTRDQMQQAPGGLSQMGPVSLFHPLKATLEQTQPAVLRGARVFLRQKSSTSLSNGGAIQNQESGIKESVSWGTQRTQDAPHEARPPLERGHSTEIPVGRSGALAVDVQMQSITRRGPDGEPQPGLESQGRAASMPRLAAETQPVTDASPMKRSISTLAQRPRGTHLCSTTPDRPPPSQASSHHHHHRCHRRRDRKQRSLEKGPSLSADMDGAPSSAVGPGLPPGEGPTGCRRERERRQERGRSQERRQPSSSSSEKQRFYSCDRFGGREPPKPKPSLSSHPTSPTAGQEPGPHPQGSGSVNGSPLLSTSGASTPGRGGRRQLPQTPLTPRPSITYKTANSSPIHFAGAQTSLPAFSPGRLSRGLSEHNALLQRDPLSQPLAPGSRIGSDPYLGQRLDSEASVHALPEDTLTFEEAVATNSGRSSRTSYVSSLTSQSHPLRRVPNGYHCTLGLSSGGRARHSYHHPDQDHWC
T1 sequence (Q02410 whole entry): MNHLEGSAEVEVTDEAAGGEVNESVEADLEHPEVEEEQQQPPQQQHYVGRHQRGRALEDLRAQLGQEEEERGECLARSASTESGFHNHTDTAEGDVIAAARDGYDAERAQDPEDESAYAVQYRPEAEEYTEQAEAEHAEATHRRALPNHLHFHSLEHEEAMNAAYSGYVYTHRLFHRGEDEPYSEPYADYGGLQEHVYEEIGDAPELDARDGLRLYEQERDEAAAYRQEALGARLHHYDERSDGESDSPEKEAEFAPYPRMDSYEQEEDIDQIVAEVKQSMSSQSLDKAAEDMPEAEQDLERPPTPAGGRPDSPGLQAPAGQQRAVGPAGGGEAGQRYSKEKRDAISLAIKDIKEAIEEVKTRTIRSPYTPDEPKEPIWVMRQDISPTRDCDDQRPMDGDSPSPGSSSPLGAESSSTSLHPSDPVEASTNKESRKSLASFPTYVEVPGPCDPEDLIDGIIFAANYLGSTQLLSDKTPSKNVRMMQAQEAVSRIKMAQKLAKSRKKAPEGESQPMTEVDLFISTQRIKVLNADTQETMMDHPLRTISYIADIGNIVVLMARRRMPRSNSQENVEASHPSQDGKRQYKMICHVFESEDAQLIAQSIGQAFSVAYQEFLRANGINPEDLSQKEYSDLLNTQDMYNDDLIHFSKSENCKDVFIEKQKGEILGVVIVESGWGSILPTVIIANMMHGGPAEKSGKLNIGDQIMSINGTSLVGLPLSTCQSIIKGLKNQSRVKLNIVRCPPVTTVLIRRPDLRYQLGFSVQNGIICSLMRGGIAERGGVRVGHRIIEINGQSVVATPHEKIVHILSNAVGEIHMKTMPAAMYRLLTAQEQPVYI

[5] = biological target: T1, Voltage-gated N-type calcium channel alpha-1B subunit/Amyloid beta A4 precursor protein-binding family A member 1; type: protein assay; remark: listed apart in the source
Cytochrome P450 2C9 = Cytochrome P450 2C9 (Homo sapiens, UniProt P11712)
Cytochrome P450 2C9, sequence (P11712 whole entry): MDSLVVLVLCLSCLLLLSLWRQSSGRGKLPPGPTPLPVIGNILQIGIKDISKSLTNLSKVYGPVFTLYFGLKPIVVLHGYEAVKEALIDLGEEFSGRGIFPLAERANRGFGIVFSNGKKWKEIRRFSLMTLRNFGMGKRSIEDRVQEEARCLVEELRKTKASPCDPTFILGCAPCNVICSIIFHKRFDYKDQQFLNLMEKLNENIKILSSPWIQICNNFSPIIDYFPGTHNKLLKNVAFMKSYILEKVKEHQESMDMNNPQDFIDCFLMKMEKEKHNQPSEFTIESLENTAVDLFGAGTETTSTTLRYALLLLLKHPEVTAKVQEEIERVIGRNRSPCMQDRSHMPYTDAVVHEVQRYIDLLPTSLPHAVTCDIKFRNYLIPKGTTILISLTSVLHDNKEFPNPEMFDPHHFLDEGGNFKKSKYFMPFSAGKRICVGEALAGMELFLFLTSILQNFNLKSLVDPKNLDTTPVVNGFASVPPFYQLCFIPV

Cytochrome P450 1A2 = biological target: T2, Cytochrome P450 1A2 (Homo sapiens, UniProt P05177);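 note: PubChem cytochrome P450 panel assay, CYP1A2 panel member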
T2 sequence (P05177 whole entry): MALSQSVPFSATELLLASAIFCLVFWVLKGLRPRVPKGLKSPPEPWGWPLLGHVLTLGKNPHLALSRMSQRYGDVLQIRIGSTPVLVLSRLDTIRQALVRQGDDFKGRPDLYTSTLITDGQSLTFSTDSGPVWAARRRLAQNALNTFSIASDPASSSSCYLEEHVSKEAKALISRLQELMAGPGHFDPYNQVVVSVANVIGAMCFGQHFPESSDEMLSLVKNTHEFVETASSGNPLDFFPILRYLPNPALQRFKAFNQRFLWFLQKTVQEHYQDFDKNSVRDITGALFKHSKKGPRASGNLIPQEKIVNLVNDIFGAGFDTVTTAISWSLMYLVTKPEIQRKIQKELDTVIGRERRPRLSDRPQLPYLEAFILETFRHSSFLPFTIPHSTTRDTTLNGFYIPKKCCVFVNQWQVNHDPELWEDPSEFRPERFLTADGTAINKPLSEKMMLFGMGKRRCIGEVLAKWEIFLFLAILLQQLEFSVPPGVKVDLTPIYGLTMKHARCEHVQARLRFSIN

[6] = biological target: T3, Short transient receptor potential channel 4 (Mus musculus, UniProt Q9QUQ5); assay: calcium entry via TRPC4 opening agents – cell-based, HEK293 TRPC4/mu-opioid, Fluo-4 calcium, dose response (AID 434937); type: functional
T3 sequence (Q9QUQ5 whole entry): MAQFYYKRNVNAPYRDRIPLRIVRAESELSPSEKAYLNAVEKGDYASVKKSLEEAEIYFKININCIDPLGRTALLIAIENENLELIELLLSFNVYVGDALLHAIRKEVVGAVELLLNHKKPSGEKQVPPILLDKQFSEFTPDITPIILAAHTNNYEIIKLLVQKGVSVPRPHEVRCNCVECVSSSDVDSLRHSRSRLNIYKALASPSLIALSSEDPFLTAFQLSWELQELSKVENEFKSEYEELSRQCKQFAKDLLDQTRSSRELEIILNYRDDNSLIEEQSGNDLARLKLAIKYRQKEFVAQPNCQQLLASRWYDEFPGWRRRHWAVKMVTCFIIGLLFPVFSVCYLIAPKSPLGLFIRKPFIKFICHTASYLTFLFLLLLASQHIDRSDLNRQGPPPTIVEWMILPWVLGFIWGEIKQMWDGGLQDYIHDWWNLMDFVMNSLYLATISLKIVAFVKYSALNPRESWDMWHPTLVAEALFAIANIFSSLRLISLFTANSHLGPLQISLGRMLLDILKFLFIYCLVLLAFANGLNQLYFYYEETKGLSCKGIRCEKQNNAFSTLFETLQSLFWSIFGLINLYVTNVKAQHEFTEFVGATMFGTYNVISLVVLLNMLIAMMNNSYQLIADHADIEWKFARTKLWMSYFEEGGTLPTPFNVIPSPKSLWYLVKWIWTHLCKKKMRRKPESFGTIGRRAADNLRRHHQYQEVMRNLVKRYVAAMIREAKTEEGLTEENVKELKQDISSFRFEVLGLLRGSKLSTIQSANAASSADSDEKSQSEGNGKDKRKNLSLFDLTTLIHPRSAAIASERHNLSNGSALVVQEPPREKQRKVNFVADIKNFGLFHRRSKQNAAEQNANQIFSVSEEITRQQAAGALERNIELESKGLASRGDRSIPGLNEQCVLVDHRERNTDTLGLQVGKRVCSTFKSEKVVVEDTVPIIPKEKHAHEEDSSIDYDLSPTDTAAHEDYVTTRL

[7] = NIH3T3 cell viability loss – ATP luminescence, mouse fibroblasts, counter-screen, dose response (AID 2010); type: functional, cell-based;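 note: cells exposed to compound for about 90 hours before reading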
[8] = Trypanosoma cruzi growth suppression in host cells – NIH3T3 host cells, beta-gal luminescence, confirmation (AID 2044); type: functional, cell-based;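 note: intracellular parasites grown in NIH/3T3 mouse fibroblasts as host cells; luminescent beta-galactosidase reporter signal from transgenic T. cruzi replicating inside host cells; inhibitors lower the luminescence signal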
[9] = biological target: T3, Short transient receptor potential channel 4; assay: block of DAMGO-driven TRPC4 calcium entry – cell-based, HEK293 TRPC4/mu-opioid, Fluo-4 calcium, dose response (AID 434942); type: functional;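 note: potency of inhibitors blocking the TRPC4 calcium response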
[10] = biological target: T4, DNA repair protein RAD52 homolog (Homo sapiens, UniProt P43351); type: functional, biochemical
T4 sequence (P43351 whole entry): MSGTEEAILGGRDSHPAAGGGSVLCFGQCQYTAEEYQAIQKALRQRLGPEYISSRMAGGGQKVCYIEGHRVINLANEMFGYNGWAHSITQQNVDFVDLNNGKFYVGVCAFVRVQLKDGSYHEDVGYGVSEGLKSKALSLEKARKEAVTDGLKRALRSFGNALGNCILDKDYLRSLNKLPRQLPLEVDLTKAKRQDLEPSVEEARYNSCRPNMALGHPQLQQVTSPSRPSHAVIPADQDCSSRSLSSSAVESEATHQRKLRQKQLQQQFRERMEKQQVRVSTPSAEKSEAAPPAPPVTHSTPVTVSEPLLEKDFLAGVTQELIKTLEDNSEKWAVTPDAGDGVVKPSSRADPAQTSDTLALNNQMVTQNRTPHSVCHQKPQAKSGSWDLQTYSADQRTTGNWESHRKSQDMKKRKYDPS

[11] = biological target: T5, DNA repair and recombination protein RAD54-like (Homo sapiens, UniProt Q92698); assay: RAD54 Holliday junction migration blockers – biochemical, fluorescence, cherry-picked samples, dose series, confirmation (AID 651657); type: functional
T5 sequence (Q92698 whole entry): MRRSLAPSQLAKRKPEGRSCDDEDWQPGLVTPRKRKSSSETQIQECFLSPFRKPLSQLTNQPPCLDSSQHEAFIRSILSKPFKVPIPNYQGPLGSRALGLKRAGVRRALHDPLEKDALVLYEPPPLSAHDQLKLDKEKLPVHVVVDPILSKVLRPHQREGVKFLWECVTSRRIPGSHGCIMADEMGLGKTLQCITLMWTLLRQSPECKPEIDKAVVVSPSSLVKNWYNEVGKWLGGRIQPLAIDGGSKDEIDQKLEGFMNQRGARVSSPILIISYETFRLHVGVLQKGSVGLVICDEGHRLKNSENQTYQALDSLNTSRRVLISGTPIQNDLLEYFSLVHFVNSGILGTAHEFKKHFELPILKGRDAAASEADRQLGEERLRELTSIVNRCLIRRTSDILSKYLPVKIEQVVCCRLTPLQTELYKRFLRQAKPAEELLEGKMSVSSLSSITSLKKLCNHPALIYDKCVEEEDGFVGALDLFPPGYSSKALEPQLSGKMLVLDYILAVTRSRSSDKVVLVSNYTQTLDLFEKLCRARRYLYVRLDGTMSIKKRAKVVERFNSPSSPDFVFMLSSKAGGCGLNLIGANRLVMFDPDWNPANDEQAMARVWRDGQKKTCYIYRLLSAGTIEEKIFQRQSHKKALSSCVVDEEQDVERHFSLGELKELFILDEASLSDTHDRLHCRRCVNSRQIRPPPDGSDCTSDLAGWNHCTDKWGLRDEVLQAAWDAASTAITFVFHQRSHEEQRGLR

[12] = blockers of HIV-1 envelope-mediated cell-cell fusion – cherry-pick, dose response (AID 652057); type: functional, cell-based
[13] = HIV-1 AD8 envelope cell-cell fusion blockers – cherry-pick, dose response (AID 652062); type: functional, cell-based;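 note: luciferase signal from cell-cell fusion driven by HIV-1 clade B AD8 Env; potency is for inhibitors of fusion seen as a drop in luminescence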

EC50 [1]: 17.8 µM (not active)
EC50 [2]: 29.8 µM (not active)
EC50 [3]: 20.4 µM (not active)
SMILES: O=C(NCc1ccc2c(c1)OCO2)Nc1ccc2nsnc2c1

IC50 [4]: > 50 µM (inactive)
IC50 [5]: 4.43 µM (active)
SMILES: C=CCOc1ccc(/C=C2\SC(=S)N(N3CCOCC3)C2=O)cc1

AC50 (Cytochrome P450 2C9): inconclusive
AC50 (Cytochrome P450 1A2): 20 µM (inconclusive)
EC50 [6]: 0.944 µM (active)
SMILES: CCn1c(N2CCN(C(=O)Nc3ccc(F)cc3)CC2)nc2ccccc21

SMILES: COc1cc(CNCCCN2CCOCC2)cc(Br)c1OCc1ccc(Cl)cc1
EC50 [7]: 24 µM (active)
EC50 [8]: 0.531 µM (active)
EC50 [9]: 5.96 µM (active)

EC50 [6]: 1.19 µM (active)
SMILES: CC1CC(C)CN(CCCNC(=O)Cn2cccc2C(=O)c2ccccc2)C1 (stereo not drawn)

AC50 [10]: 17.4 µM (active)
SMILES: NCCCC[C@H]1CN=C(S)N1CCc1cc(C(F)(F)F)cc(C(F)(F)F)c1

AC50 [10]: 24.3 µM (active)
SMILES: CCN1CCN(Cc2ccc(NC(=O)c3cc(NC(=O)c4cnnc5ccccc45)cc(OC)c3)cc2C(F)(F)F)CC1

AC50 [11]: 16.6 µM (active)
AC50 [10]: 5.69 µM (active)
SMILES: COc1ccc(-c2cc(NC=O)c3ncc(-c4cccc(C(=O)NCCN(C)C)c4)n3c2)cn1

SMILES: COc1ccc(S(=O)(=O)N(C)C[C@@H]2Oc3ccc(NC(=O)C4CCCCC4)cc3CC(=O)N([C@@H](C)CO)C[C@@H]2C)cc1
AC50 [12]: 27.6 µM (active)

SMILES: COCC(=O)N1C[C@@H](C)[C@H](OC)CN(C)C(=O)c2ccc(NC(=O)c3ccc(OC)cc3)cc2OC[C@@H]1C
AC50 [13]: 5.52 µM (active)
